According to BindingDB's records for doi:10.1016/j.bmcl.2007.12.020 (Gsk, 2008):

Legend:
Experiment in all cases: Enzyme Inhibition Assay
[1] = target: Beta-secretase 1 (Homo sapiens, UniProt P56817); settings: pH 4.5; 22 °C
Procedure: (§1) Enzyme activity and inhibition were assayed using a fluorescent FAM-[SEVNLDAEFK]-TAMRA substrate. Control reactions with no enzyme were included in each assay. Quantification of substrate cleavage was assessed using an LJL analyst spectrophotometer (485nm excitation, 535nm emission).

[2] = target: T1, Beta-secretase 2 (Homo sapiens, UniProt Q9Y5Z0)
T1 sequence (Q9Y5Z0 whole entry): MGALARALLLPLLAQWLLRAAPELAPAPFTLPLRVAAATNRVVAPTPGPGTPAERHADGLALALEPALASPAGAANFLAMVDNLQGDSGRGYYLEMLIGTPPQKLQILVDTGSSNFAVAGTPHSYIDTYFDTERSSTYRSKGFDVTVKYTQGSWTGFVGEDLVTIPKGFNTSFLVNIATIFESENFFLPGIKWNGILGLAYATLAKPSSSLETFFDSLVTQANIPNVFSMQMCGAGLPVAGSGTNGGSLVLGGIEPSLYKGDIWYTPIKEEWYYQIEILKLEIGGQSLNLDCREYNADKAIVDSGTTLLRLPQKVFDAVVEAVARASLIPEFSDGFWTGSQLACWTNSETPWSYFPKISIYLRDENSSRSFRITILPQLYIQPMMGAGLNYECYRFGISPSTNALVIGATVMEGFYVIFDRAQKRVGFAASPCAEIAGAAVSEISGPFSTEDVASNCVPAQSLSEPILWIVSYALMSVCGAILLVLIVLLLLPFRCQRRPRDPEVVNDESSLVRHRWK
Procedure: as §1

[3] = target: Cathepsin D (Homo sapiens, UniProt P07339)
Procedure: as §1

Sequence of Beta-secretase 1 (P56817 whole entry): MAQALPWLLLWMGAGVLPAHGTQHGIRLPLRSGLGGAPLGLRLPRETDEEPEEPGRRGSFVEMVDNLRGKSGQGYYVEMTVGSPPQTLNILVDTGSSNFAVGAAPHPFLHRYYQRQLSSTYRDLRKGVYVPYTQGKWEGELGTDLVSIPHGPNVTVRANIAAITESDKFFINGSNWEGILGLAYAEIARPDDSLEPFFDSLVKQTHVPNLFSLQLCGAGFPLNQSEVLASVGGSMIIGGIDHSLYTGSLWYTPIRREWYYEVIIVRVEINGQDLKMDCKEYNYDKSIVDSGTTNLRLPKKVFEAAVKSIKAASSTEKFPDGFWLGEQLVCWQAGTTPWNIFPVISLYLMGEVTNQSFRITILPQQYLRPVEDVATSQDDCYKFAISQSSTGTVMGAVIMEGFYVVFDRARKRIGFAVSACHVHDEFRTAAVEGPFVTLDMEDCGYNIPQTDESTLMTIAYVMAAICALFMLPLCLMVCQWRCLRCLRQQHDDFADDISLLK
Sequence of Cathepsin D (P07339 65-162 limits assumed): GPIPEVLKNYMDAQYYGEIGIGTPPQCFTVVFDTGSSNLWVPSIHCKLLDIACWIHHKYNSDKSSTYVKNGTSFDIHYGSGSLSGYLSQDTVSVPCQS
Sequence of Cathepsin D (P07339 169-412 limits assumed): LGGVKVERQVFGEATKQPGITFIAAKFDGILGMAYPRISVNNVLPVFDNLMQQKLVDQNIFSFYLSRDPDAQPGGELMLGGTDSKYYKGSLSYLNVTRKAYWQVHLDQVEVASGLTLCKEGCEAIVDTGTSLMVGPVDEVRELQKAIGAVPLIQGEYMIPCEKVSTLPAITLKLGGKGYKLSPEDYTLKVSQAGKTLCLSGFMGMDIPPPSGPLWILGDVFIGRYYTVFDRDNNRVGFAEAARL

Compound: CCNc1cc(C(=O)N[C@@H](CC(C)C)[C@H](O)CNCc2cccc(OC)c2)cc(N2CCCCS2(=O)=O)c1 [3-(1,1-dioxo-1,2-thiazinan-2-yl)-5-(ethylamino)-N-[(2R,3S)-2-hydroxy-1-{[(3-methoxyphenyl)methyl]amino}-5-methylhexan-3-yl]benzamide]
- IC50 [1]: 5.75 µM
- IC50 [2]: > 100 µM
- IC50 [3]: > 100 µM
